In US8529542B2, “Method and system for sustained-release of sclerosing agent” (UTI Limited Partnership, priority 2007, dated 2013):

What was measured:
patients = details: cited from earlier work; for pain after intrapleural administration: literature reports
[1] = test system: rabbit model of pleurodesis; test: Direct daily dosing at low levels, rabbit model of pleurodesis; assay type: in vivo; details: for average pleurodesis score: score out of 8
Procedure: These experiments were carried out in order to determine if low doses of sclerosing agents could result in successful pleurodesis when administered in a repeated fashion. Using daily doses of silver nitrate or doxycycline in decreasing doses starting at the lower limit of what has previously been reported to be effective, further decreases in dosing were administered utilizing single day, 5 day or 14 day regimens. Theoretically utilizing lower doses on a repeated basis may reduce the frequency and/or severity of side effects.
All experiments were carried out in a rabbit model of pleurodesis which has been extensively utilized in the field of pleurodesis in many centers around the world. As explained in further detail below, standard pleurodesis is score graded one to 8 and is used for assessment of the efficacy of pleurodesis, the number one representing a normal pleural space while 8 represents complete pleural symphysis. A score of 5 or higher is usually considered consistent with a successful pleurodesis.
A total of 18 animals were treated with doxycycline at doses of 1 mg/kg, 5 mg/kg, or 10 mg/kg. Animals (n=2) in the 10 mg/kg group received only the single day injection, animals (n=2/group) in the 5 mg/kg range received either 1 day, 5 days or 14 days injection, and animals in the lowest dose range of 1 mg/kg (n=2/group) received repeated injections over 5 days or 14 days. The results were compared with the placebo groups (n=2/group) which were given saline injections over either 1, 5 or 14 days. All doses were administered after a daily drainage. At the end of the treatment period, the animals were euthanized and pleurodesis was scored according to the standard scoring system shown in FIG. 5.
A total of 20 animals were treated with silver nitrate at dosing concentrations of 0.05%, 0.085%, 0.425% and 0.85%. Note that reported effective single dose injections of silver nitrate in this model range from 0.3% to 0.5%. A concentration of 0.25% was reported to be ineffective in one publication, but overall data is limited. The groups were assigned a treatment period of either a 1 day, 5 days or 14 days of repeated injections. A minimum of 2 animals were used for each of the 10 groups, and a further 2 animals were tested at the lowest dose range (0.05%). The results were compared with the placebo groups which were given saline injections over either 1, 5 or 14 days (n=2/group). All doses were administered after a daily drainage. At the end of the treatment period, the animals were euthanized and pleurodesis was scored according to the standard scoring table (shown in FIG. 5). Degree of pleural inflammation and fibrosis was also evaluated.

animal model = details: cited from earlier work
[2] = test system: rabbit model of pleurodesis; details: concentration of 0.25%; cited from earlier work

**Q.** What does the source list for C[C@H]1c2cccc(O)c2C(=O)C2=C(O)[C@]3(O)C(=O)C(C(N)=O)=C(O)[C@@H](N(C)C)[C@@H]3[C@@H](O)[C@@H]21 [doxycycline]?
**A.** pain after intrapleural administration (patients): significant; pleurodesis score ([1]; 5 mg/kg over 14 days, score 1-8): 5; mean pleurodesis score ([1]; 10 mg/kg single dose, score 1-8): 4.5

**Q.** Which mortality (animal model; higher doses, intrapleural (Light et al., 1994)) does the source give for CN(C)c1ccc(O)c2c1C[C@H]1C[C@H]3[C@H](N(C)C)C(O)=C(C(N)=O)C(=O)[C@@]3(O)C(O)=C1C2=O [minocycline] here?
**A.** excess mortality

**Q.** Which “tolerability in human trial” value (patients; 0.5% concentration (Paschoalini et al., 2005)) does the source give for O=[N+]([O-])[O-].[Ag+] [silver nitrate] here?
**A.** well tolerated

**Q.** And the clinical side effects (patients; concentrations of up 10% (Wied et al.))?
**A.** severe pain and side effects

**Q.** What about the “pain after intrapleural administration” value (patients) of the same compound?
**A.** significant

**Q.** And the average pleurodesis score ([1]; 0.05% 14 days of repeated injections)?
**A.** 6.5

**Q.** What about the pleurodesis scores ([1]; 0.050% administered for 14 days) of the same compound?
**A.** greater than or equal to 5

**Q.** And the pleurodesis scores ([1]; 0.085% administered for 5 days)?
**A.** successful pleurodesis scores

**Q.** What about the average pleurodesis score ([1]; 0.085% repeated daily over 5 days) of the same compound?
**A.** 7.5

**Q.** And the pleurodesis outcome ([1]; 0.085% single dose)?
**A.** ineffective in achieving pleurodesis

**Q.** And the average pleurodesis score ([1]; 0.425% single day injection)?
**A.** 8

**Q.** What about the average pleurodesis score ([1]; 0.85% single day injection) of the same compound?
**A.** 8

**Q.** And the “systemic response (white blood cell count elevation, neutrophilia, serum interleukin-8 and VEGF levels)” value (animal model; concentration of 0.1% vs 0.5% dose (Marchi et al., 2005))?
**A.** less systemic response

**Q.** What about the “pleurodesis outcome (one publication)” value [2] of the same compound?
**A.** ineffective

**Q.** Which “pain after intrapleural administration” value (patients) does the source give for CN(C)[C@@H]1C(O)=C(C(N)=O)C(=O)[C@@]2(O)C(O)=C3C(=O)c4c(O)cccc4[C@@](C)(O)[C@H]3C[C@@H]12 [tetracycline] here?
**A.** Intense pain
